Drawing on patent US7138411B2, “Substituted benzopyran derivatives for the treatment of inflammation” (G.D. Searle & Co., priority 1997, dated 2006), this text covers melting point for 29 compounds.

Where a name gives a salt, the structure may show the parent alone.

Consider `O=C(O)C1=Cc2cc(Cl)c(Oc3cccc(C(=O)O)c3)cc2OC1C(F)(F)F` (centres unmarked) (as salt: potassium) [Example 208, 7-(3-Carboxyphenoxy)-6-chloro-2-(trifluoromethyl)-2H-1-benzopyran-3-carboxylic acid], for which the melting point (as a rule, the temperature, or range, at which the solid turns liquid) was 288.1 to 289.2 °C.
The result for `COc1ccc(-c2cc(Cl)cc3c2OC(C(F)(F)F)C(C(=O)O)=C3)cc1` (centres unmarked) [Example 141, 6-Chloro-8-(4-methoxyphenyl)-2-trifluoromethyl-2H-1-benzopyran-3-carboxylic acid] reads 194 to 196 °C; that for `O=C(O)C1=Cc2cc3c(cc2OC1C(F)(F)F)OCO3` (centres unmarked) [Example 92, 6-(Trifluoromethyl)-6H-1,3-dioxolo[4,5-g][1]benzopyran-7-carboxylic acid], 245.8 to 247.8 °C.
Then `CC(C)(C)C#Cc1cc(Cl)cc2c1OC(C(F)(F)F)C(C(=O)O)=C2` (centres unmarked) [Example 121, 6-Chloro-8-(3,3-dimethyl-1-butynyl)-2-(trifluoromethyl)-2H-1-benzopyran-3-carboxylic acid], with 218.3 to 222.4 °C; and `CCN1c2ccc(Cl)cc2C=C(C(=O)O)C1C(F)(F)F` (centres unmarked) [Example 171, 6-Chloro-1,2-dihydro-1-ethyl-2-(trifluoromethyl)-3-quinolinecarboxylic acid], with 201 to 202 °C.
Then `O=C(O)C1=Cc2cc(I)cc(I)c2OC1C(F)(F)F` (centres unmarked) [Example 134, 6,8-Diiodo-2-(trifluoromethyl)-2H-1-benzopyran-3-carboxylic acid], with 243 to 244 °C; and `CCc1ccc2c(c1)OC(C(F)(F)F)C(C(=O)O)=C2` (centres unmarked) [Example 85, 7-Ethyl-2-trifluoromethyl-2H-1-benzopyran-3-carboxylic acid], with 167 to 168.6 °C; and `Cc1ccc2c(c1)SC(C(F)(F)F)C(C(=O)O)=C2` (centres unmarked) [Example 148, 7-Methyl-2-(trifluoromethyl)-2H-1-benzothiopyran-3-carboxylic acid], with 186.6 to 191.9 °C.
As to `O=C(O)C1=Cc2cc(Cl)c(Oc3ccc(C(=O)O)cc3Cl)cc2OC1C(F)(F)F` (centres unmarked) (as salt: potassium) [Example 207, 7-(4-Carboxy-2-chloro-phenoxy)-6-chloro-2-(trifluoromethyl)-2H-1-benzopyran-3-carboxylic acid], the melting point was above 300 °C.
Then `O=C(O)C1=Cc2cc(Cl)ccc2N(Cc2ccc(C(F)(F)F)cc2)C1C(F)(F)F` (centres unmarked) [Example 166, 6-Chloro-1,2-dihydro-2-(trifluoromethyl)-1-[[4-(trifluoromethyl)phenyl]methyl]-3-quinolinecarboxylic acid], with 229 to 231 °C; and `Cc1ncc(CO)c2c1OC(C(F)(F)F)C(C(=O)O)=C2` (centres unmarked) [Example 90, 5-(Hydroxymethyl)-8-methyl-2-(trifluoromethyl)-2H-pyrano[2,3-c]pyridine-3-carboxylic acid], with 76.1 to 80.1 °C.
The result for `O=C(O)C1=Cc2cccc(F)c2OC1C(F)(F)F` (centres unmarked) [Example 17, 8-Fluoro-2-trifluoromethyl-2H-1-benzopyran-3-carboxylic acid] reads 197.7 to 210.1 °C; that for `NS(=O)(=O)c1ccc2c(c1)C=C(C(=O)O)C(C(F)(F)F)O2` (centres unmarked) [Example 51, 6-Aminosulfonyl-2-trifluoromethyl-2H-1-benzopyran-3-carboxylic acid], 187.9 to 189.8 °C.
The result for `CCOc1cccc2c1OC(C(F)(F)F)C(C(=O)O)=C2` (centres unmarked) [Example 93, 8-Ethoxy-2-trifluoromethyl-2H-1-benzopyran-3-carboxylic acid] reads 159.4 to 160.9 °C; that for `O=C(O)C1=Cc2cc(-c3ccc(F)cc3)ccc2OC1C(F)(F)F` (centres unmarked) [Example 131, 6-(4-Fluorophenyl)-2-(trifluoromethyl)-2H-1-benzopyran-3-carboxylic acid], 207 to 210 °C.
Consider `O=C(O)C1=Cc2cc(Br)cc(F)c2OC1C(F)(F)F` (centres unmarked) [Example 130, 6-Bromo-8-fluoro-2-(trifluoromethyl)-2H-1-benzopyran-3-carboxylic acid], for which the melting point lay within 206 to 208 °C.
Then `O=C(O)C1=Cc2cc(Cl)c(C(F)(F)F)cc2OC1C(F)(F)F` (centres unmarked) [Example 94, 6-Chloro-2,7-bis(trifluoromethyl)-2H-1-benzopyran-3-carboxylic acid], with 180.9 to 182.4 °C; and `O=C(O)C1=C(c2cccs2)c2cc(Cl)ccc2OC1C(F)(F)F` (centres unmarked) [Example 144, 6-Chloro-4-(2-thienyl)-2-(trifluoromethyl)-2H-1-benzopyran-3-carboxylic acid], with 200.8 to 206.7 °C.
Then `CC(C)(C)c1ccc2c(c1)C=C(C(=O)O)C(C(F)(F)F)S2` (centres unmarked) [Example 147, 6-(1,1-Dimethylethyl)-2-(trifluoromethyl)-2H-1-benzothiopyran-3-carboxylic acid], with 183.8 to 184.6 °C.
Then `O=C(O)C1=Cc2ccc(C(F)(F)F)cc2OC1C(F)(F)F` (centres unmarked) [Example 4, 2,7-bis(Trifluoromethyl)-2H-1-benzopyran-3-carboxylic acid], with 190.3 to 193.5 °C.
`CSc1ccc(-c2cc(Cl)cc3c2OC(C(F)(F)F)C(C(=O)O)=C3)cc1` (centres unmarked) [Example 127, 6-Chloro-8-[(4-methylthio)phenyl]-2-(trifluoramethyl)-2H-1-benzopyran-3-carboxylic acid]: the melting point was 211.4 to 212.5 °C.
Then `O=C(O)C1=Cc2cc(Cl)ccc2N(Cc2ccc(Cl)cc2)C1C(F)(F)F` (centres unmarked) [Example 167, 6-Chloro-1-[(4-Chlorophenyl)methyl]-1,2-dihydro-2-(trifluoromethyl)-3-quinolinecarboxylic acid], with 250 to 253 °C; and `O=C(O)C1=Cc2ccccc2OC1C(F)(F)F` (centres unmarked) [Example 10, 2-Trifluoromethyl-2H-1-benzopyran-3-carboxylic acid], with 152.2 to 153.3 °C; and `O=C(O)C1=Cc2cc(Cl)c(Oc3ccccc3Cl)cc2OC1C(F)(F)F` (centres unmarked) [Example 204, 6-Chloro-7-(2-chlorophenoxy)-2-(trifluoromethyl)-2H-1-benzopyran-3-carboxylic acid], with 199 to 199.1 °C.
`N#Cc1cc(Cl)cc2c1OC(C(F)(F)F)C(C(=O)O)=C2` (centres unmarked) [Example 107, 6-Chloro-8-cyano-2-(trifluoromethyl)-2H-1-benzopyran-3-carboxylic acid] returned a melting point of 238.1 to 239.7 °C.
Then `O=C(O)C1=Cc2cc(Oc3ccc(Cl)cc3)cc(Cl)c2OC1C(F)(F)F` (centres unmarked) [Example 100], with 227.8 to 228.9 °C; and `O=C(O)C1=Cc2cc(C(O)C(F)(F)F)ccc2OC1C(F)(F)F` (centres unmarked) [Example 173, 6-(2,2,2-Trifluoro-1-hydroxyethyl)-2-(trifluoromethyl)-2H-1-benzopyran-3-carboxylic acid], with 114 to 120 °C; and `O=C(O)C1=Cc2cc(Cl)cc(C#Cc3ccc(Cl)cc3)c2OC1C(F)(F)F` (centres unmarked) [Example 122, 6-Chloro-8-[(4-chlorophenyl)ethynyl]-2-(trifluoromethyl)-2H-1-benzopyran-3-carboxylic acid], with 210.4 to 211.4 °C.
Then `O=C(O)C1=Cc2cc(Cl)cc(COCc3ccccc3)c2OC1C(F)(F)F` (centres unmarked) [Example 113, 6-Chloro-8-(benzyloxymethyl)-2-(trifluoromethyl)-2H-1-benzopyran-3-carboxylic acid], with 133.8 to 135.4 °C.
